In brackets after ≈: the same amount, converted by molar mass. Where only a bound is given, the exact number is not on record here.

We go through one compound from patent EP0083750A1, “Antimycotic azolyl butanols” (BAYER AG, priority 1981, dated 1983).

In one assay the test system is Aspergillus fumig. The assay is described as follows: Antimycotic in-vitro activity, serial dilution test (MIC). The format is cell-based. The following applies: 96 h, Reihenverdünnungstest, 5 x 10^4 Keimen/ml Substrat, Sabourand's milieu d'epreuve, 20°C, 96 Stunden, read-out: MHK-Werte in γ/ml Nährmedium, Aspergillus fumig. Here is the method:
(§1) Versuchsbeschreibung: • Die in-vitro-Prüfungen wurden im Reihenverdünnungstest mit Keiminokula von durchschnittlich 5 x 10^4 Keimen/ml Substrat durchgeführt. Als Nährmedium dienten • a) für Dermatophyten und Schimmelpilze: Sabourand's milieu d'epreuve • b) für Hefen: • Fleischextrakt-Traubenzucker-Bouillon.
(§2) Die Bebrütungstemperatur betrug 20°C, die Bebrütungsdauer lag bei 24 bis 96 Stunden bei Hefen und 96 Stunden bei Dermatophyten und Schimmelpilzen.

Another assay deals with Candida albicans. The description is as above. It is filed as cell-based. Particulars: Reihenverdünnungstest, 5 x 10^4 Keimen/ml Substrat, Fleischextrakt-Traubenzucker-Bouillon, 20°C, 24 bis 96 Stunden, read-out: MHK-Werte in γ/ml Nährmedium, Candida albicans. Here is the method:
as §1, §2

The test system of another assay is Microsporum canis. The assay is described as above. It is filed as cell-based. Particulars: 96 h, Reihenverdünnungstest, 5 x 10^4 Keimen/ml Substrat, Sabourand's milieu d'epreuve, 20°C, 96 Stunden, read-out: MHK-Werte in γ/ml Nährmedium, Microsporum canis. Here is the method: as §1, §2
The next assay has as its system Torulopsis glabrata. Described as above. It is filed as cell-based. Particulars: Nakaseomyces glabratus; Reihenverdünnungstest, 5 x 10^4 Keimen/ml Substrat, Fleischextrakt-Traubenzucker-Bouillon, 20°C, 24 bis 96 Stunden; read-out: MHK-Werte in γ/ml Nährmedium, Torulopsis glabrata. Here is the method: as §1, §2
Another assay concerns Trichophyton mentagr. The description is as above. It is filed as cell-based. The following applies: 96 h, Reihenverdünnungstest, 5 x 10^4 Keimen/ml Substrat, Sabourand's milieu d'epreuve, 20°C, 96 Stunden, read-out: MHK-Werte in γ/ml Nährmedium, Trichophyton mentagr. The method, then:
as §1, §2

The test system of another assay is Candida-Zellen. The assay is described as follows: Antimycotic in-vivo activity (oral) in mouse candidosis. The arrangement: species or system Mäuse vom Typ SPF-CF1. The method, then: Antimykotische in-vivo-Wirksamkeit (oral) bei Mäusecandidose
Mäuse vom Typ SPF-CF1 wurden intravenös mit 1 - 2 x 10^6 logarithmisch wachsenden Candida-Zellen, die in physiologischer Kochsalzlösung suspendiert werden, infiziert. Eine Stunde vor und sieben Stunden nach der Infektion werden die Tiere mit jeweils 50 - 100 mg/kg Körpergewicht der Präparate oral behandelt.
Unbehandelte Tiere starben 3 bis 6 Tage post infektionem. Die Überlebensrate am 6. Tag post infektionem betrug bei unbehandelten Kontrolltieren etwa 5 %.

Assay [1] concerns Trichophyton von mentagrophytes. Nature of the assay: Antimycotic in-vivo activity (local) in experimental guinea pig trichophytosis. Particulars: Meerschweinchen-Trichophytie, lokal. The source says:
Antimikrobielle in-vivo-Wirksamkeit (lokal) am Modell der experimentellen Meerschweinchen-Trichophytie
Weiße Mäuse der Rasse Pirbright-white wurden auf dem geschorenen, nicht skarifizierten Rücken mit einer Mikro-und Makrokonidien-Suspension von Trichophyton von mentagrophytes infiziert.
Die infizierten Tieren wurden, beginnend mit dem 3. Tag p.i., 1 x täglich mit einer 15%-igen Lösung der erfindungsgemäßen Präparate (in Dimethylsulfoxid : Glycerin = 1 : 4) lokal behandelt.
Bei unbehandelten Tieren entwickelte sich innerhalb 12 Tagen p.i. das typische Bild einer Dermatophytose mit Rötung, Schuppung und Haarausfall bis zum totalen Integument-Defekt an der Infektionsstelle.

For assay [2], the system named is Dermatophyten, Schimmelpilze, Hefen. Nature of the assay: Antimycotic in-vitro activity, serial dilution test, overall comparison with prior art. The following applies: in-vitro Reihenverdünnungstest. The format is cell-based. Here is the method: as §1, §2

On to `CCCCC(C(O)C(C)(C)COc1ccc(Br)cc1)n1cncn1` (stereo not drawn) [Beispiel 46], for which the MIC in the assay with Aspergillus fumig. was 4 µg/mL (≈ 10.1 µM); with Candida albicans, less than 1 µg/mL; in the assay with Microsporum canis it was less than 1 µg/mL; in the assay on Torulopsis glabrata, less than 1 µg/mL; with Trichophyton mentagr., less than 1 µg/mL. In the assay on Candida-Zellen (Mäuse SPF-CF1, intravenös infiziert mit 1 - 2 x 10^6 Candida-Zellen, jeweils 50 - 100 mg/kg oral, 1 Stunde vor und 7 Stunden nach Infektion), the “Wirkung (Überlebende am 6.Tag p.i.)” value is reported as “++++ (= gute Wirkung = 80 % Überlebende am 6.Tag p.i.)”. Also, the “Wirkung im Vergleich zu den bekannten Verbindungen (A) und (B)” value in the assay on Candida-Zellen (Mäusecandidose, oral) is listed as “bessere Wirkung”. Moreover, the Wirkung entry in assay [1] is on record as “gute bis sehr gute Wirkung”. Also, the “antimykotische Wirkung im Vergleich zu den bekannten Verbindungen (A) und (B)” value in assay [2] is reported as “bessere antimykotische Wirkung”.
